# Reference: article PMC6155222, “3-Substituted N-Benzylpyrazine-2-carboxamide Derivatives: Synthesis, Antimycobacterial and Antibacterial Evaluation” (Molecules : A Journal of Synthetic Chemistry and Natural …, 2017)
# Like-named read-outs stand apart in the source and are kept apart here.
# Key:
# [1] = Determination of lipophilicity by RP-HPLC (log k); settings: RP-HPLC capacity factor, MeOH 70% / H2O 30%, C18, 30 °C
# Protocol: Log k was determined using an Agilent Technologies 1200 SL liquid chromatograph with Diode-array Detector SL G1315C (Agilent Technologies Inc., Colorado Springs, CO, USA), with pre-column ZORBAX XDB-C18 5 μm, 4 mm × 4 mm, Part No. 7995118-504 (Agilent Technologies Inc.) and column ZORBAX Eclipse XDB-C18 5 μm, 4.6 mm × 250 mm, Part No. 7995118-585 (Agilent Technologies Inc.). The separation process was controlled by Agilent ChemStation, version B.04.02, extended by a spectral module (Agilent Technologies Inc.). The mobile phase consisted of MeOH (HPLC grade, 70%) and H2O (HPLC-Milli-Q Grade, 30%).
# The flow rate was 1.0 mL/min, samples were injected in a volume of 20 μL, and the column temperature was 30 °C. A value of 210 nm as the detection wavelength and 270 nm as the monitor wavelength were used. Retention times (tR) were measured in minutes. The dead time of the system (tD) was determined as the retention time of the KI methanol solution. Capacity factors k for individual compounds were calculated according to the formula k = (tR − tD)/tD. Log k, calculated from the capacity factor k, as used as the lipophilicity index converted to log scale.
# [2] = test system: Mycobacterium smegmatis CCM 4622 (ATCC 607); test: Antimycobacterial screening, microdilution broth panel method with resazurin; type: cell-based; settings: Mycolicibacterium smegmatis, 48 h + 4 h
# Protocol: An antimycobacterial assay was performed with fast growing Mycobacterium smegmatis CCM 4622 (ATCC 607) from the Czech Collection of Microorganisms (Brno, Czech Republic). The technique used for activity determination was a microdilution broth panel method using 96-well microtitration plates. The culturing medium was Middlebrook 7H9 (MB) broth (Sigma-Aldrich), enriched with 0.4% of glycerol (Sigma-Aldrich) and 10% of Middlebrook OADC growth supplement (Himedia, Mumbai, India). Tested compounds were dissolved in DMSO (Sigma-Aldrich), and the MB broth was then added to obtain a concentration of 2000 μg·mL^−1. Standards used for activity determination were isoniazid (INH), rifampicin (RIF), and ciprofloxacin (CPX) (Sigma-Aldrich). Final concentrations were reached by binary dilution and the addition of mycobacterial suspension, and were set as 500, 250, 125, 62.5, 31.25, 15.625, 7.81, and 3.91 μg·mL^−1, except for the standards of ciprofloxacin and rifampicin, where the final concentrations were 12.5, 6.25, 3.125, 1.56, 0.78, 0.39, 0.195, and 0.098 μg·mL^−1. […] Plates were also sealed with polyester adhesive film and incubated in the dark at 37 °C, without agitation. The addition of 0.01% solution of resazurin sodium salt followed after 48 h. This stain was prepared by dissolving resazurin sodium salt (Sigma-Aldrich) in deionised water, producing a 0.02% solution. Then, a 10% aqueous solution of Tween 80 (Sigma-Aldrich) was prepared. Both liquids were mixed up making use of the same volumes and filtered through a syringe membrane filter. Microtitration panels were then incubated for a further 4 h. Antimycobacterial activity was expressed as the minimal inhibition concentration (MIC) and the value was read on the basis of stain colour change (blue colour—active compound; pink colour—not active compound). […] All experiments were conducted in duplicate.
# [3] = test system: Mycobacterium tuberculosis H37Rv; test: Microplate Alamar Blue Assay (MABA), microdilution panel method; type: cell-based
# [4] = Cytotoxicity assay, CellTiter 96 Aqueous One Solution; type: cell-based; settings: human; HepG2 cells, 24 h exposure
# Protocol: The human liver hepatocellular carcinoma cell line HepG2 (passage 35–36), purchased from Health Protection Agency Culture Collections (ECACC, Salisbury, UK), was routinely cultured in Minimum Essential Eagle Medium MEM (Sigma-Aldrich) supplemented with 10% fetal bovine serum (PAA Laboratories GmbH, Pasching, Austria), 2mM L-glutamine solution (Sigma-Aldrich), and 1% non-essential amino acid solution (Sigma-Aldrich), in a humidified atmosphere containing 5% CO2 at 37 °C.
# For subculturing, the cells were harvested after trypsin/EDTA (Sigma-Aldrich) treatment at 37 °C. To evaluate the cytotoxicity, the HepG2 cells treated with the tested substances were used as experimental groups, whereas untreated HepG2 cells served as control groups.
# The HepG2 cells were seeded in a density of 1 × 10^4 cells per well on a 96-well plate. The following day (24 h after seeding), they were treated with tested substances dissolved in DMSO (maximal incubation concentration of DMSO was 1%). […] The treatment was carried out in a humidified atmosphere containing 5% CO2 at 37 °C, in triplicate, for 24 h. The controls representing 100% cell viability, 0% cell viability (the cells treated with 10% DMSO), no-cell controls, and vehiculum controls were incubated in triplicate, simultaneously. After 24 h exposure, the reagent from the kit CellTiter 96® Aqueous One Solution Cell Proliferation Assay (Promega) was added, according to the recommendation of the manufacturer. After 2 h incubation at 37 °C in humidified, 5% CO2 atmosphere, the absorbance was recorded at 490 nm. Inhibitory curves were constructed for each compound, plotting incubation concentrations vs. percentage of absorbance relative to untreated control. The standard toxicological parameter IC50 was calculated by a nonlinear regression analysis of the inhibitory curves using GraphPad Prism software (version 6, GraphPad Software, Inc., La Jolla, CA, USA).
# [5] = test system: Staphylococcus aureus CCM 4516/08; test: Antibacterial microdilution broth method; type: cell-based; settings: CCM4516, 24 h, read-out: MIC after 24 h S. aureus
# Protocol: (§1) Microdilution broth method. Antibacterial evaluation was performed against eight bacterial strains from the Czech Collection of Microorganisms (Brno, Czech Republic) (Staphylococcus aureus CCM 4516/08, Escherichia coli CCM 4517, Pseudomonas aeruginosa CCM 1961) or clinical isolates from the Department of Clinical Microbiology, University Hospital and Faculty of Medicine in Hradec Králové, Charles University in Prague, Czech Republic (Staphylococcus aureus H 5996/08-methicilin resistant (MRSA), Staphylococcus epidermidis H 6966/08, Enterococcus sp. J 14365/08, Klebsiella pneumoniae D 11750/08, Klebsiella pneumoniae J 14368/08-ESBL positive). All strains were subcultured on Mueller-Hinton agar (MHA) (Difco/Becton Dickinson, Detroit, MI, USA) at 35 °C and maintained on the same medium at 4 °C. The compounds were dissolved in DMSO, and the antibacterial activity was determined in Mueller-Hinton liquid broth (Difco/Becton Dickinson), and buffered to pH 7.0. Controls consisted of medium and DMSO alone. […] The minimum inhibitory concentration (MIC), defined as the minimum concentration to prevent the visible growth compared to control, was determined after 24 and 48 h of static incubation at 35 °C. The standards were neomycin, bacitracin, penicillin G, ciprofloxacin, and phenoxymethylpenicillin.
# [6] = test system: Staphylococcus epidermidis H 6966/08; test: Antibacterial microdilution broth method; type: cell-based; settings: read-out: MIC after 24 h S. epidermidis
# Protocol: as §1
# [7] = test system: Staphylococcus aureus H 5996/08-methicilin resistant (MRSA); test: Antibacterial microdilution broth method; type: cell-based; settings: 24 h, read-out: MIC after 24 h MRSA
# Protocol: as §1
# [8] = Staphylococcus epidermidis, H6966/08, 24 h
Compound,Log k [1],MIC [2] [µg/mL],MIC ([3]; pH 6.6) [µg/mL],IC50 at 24 h [4] [µM],MIC ([3]; value in parentheses) [µM],MIC [5] [µM],"MIC [6, 8] [µM]","MIC ([7]; Staphylococcus aureus, MRSA) [µM]",MIC ([6]; 24 h) [µM],MIC [7] [µM]
"O=C(NCc1cccc(Cl)c1)c1nccnc1Cl [Compound 6, 3-Chloro-N-(3-chlorobenzyl)pyrazine-2-carboxamide]",0.060,125,100,–,–,–,–,–,–,–
"Cc1ccccc1CNC(=O)c1nccnc1NCc1ccccc1C [Compound 1a, N-(2-Methylbenzyl)-3-((2-methylbenzyl)amino)pyrazine-2-carboxamide]",1.459,> 500,12.5,> 250,36,–,–,–,–,–
"O=C(NCc1ccc(C(F)(F)F)cc1)c1nccnc1Cl [Compound 13, 3-Chloro-N-(4-(trifluoromethyl)benzyl)pyrazine-2-carboxamide]",0.145,> 500,> 100,–,–,31.2,62.5,500,–,–
"O=C(NCc1ccc(C(F)(F)F)cc1)c1nccnc1NCc1ccc(C(F)(F)F)cc1 [Compound 13a, N-(4-(Trifluoromethyl)benzyl)-3-((4-(trifluoromethyl)benzyl)amino)pyrazine-2-carboxamide]",1.593,> 500,> 100,–,–,62.5,> 500,> 500,–,–
"O=C(NCc1ccc(F)cc1)c1nccnc1Cl [Compound 11, 3-Chloro-N-(4-fluorobenzyl)pyrazine-2-carboxamide]",−0.139,250,> 100,–,–,–,–,–,–,–
"CO[C@H]1/C=C/O[C@@]2(C)Oc3c(C)c(O)c4c(O)c(c(/C=N/N5CCN(C)CC5)c(O)c4c3C2=O)NC(=O)/C(C)=C\C=C\[C@H](C)[C@H](O)[C@@H](C)[C@@H](O)[C@@H](C)[C@H](OC(C)=O)[C@@H]1C [RIF, rifampicin, reference compound]",–,0.78 to 1.56,–,–,–,–,–,–,–,–
"CC1(C)S[C@@H]2[C@H](NC(=O)COc3ccccc3)C(=O)N2[C@H]1C(=O)O [Penicillin V, phenoxymethylpenicillin, reference compound]",–,–,–,–,–,0.12,3.9,62.5,–,–
"Cc1ccc(CNC(=O)c2nccnc2NCc2ccc(C)cc2)cc1 [Compound 2a, N-(4-Methylbenzyl)-3-((4-methylbenzyl)amino)pyrazine-2-carboxamide]",1.517,> 250,25,–,72,–,–,–,–,–
"O=C(NCc1ccc(Cl)c(Cl)c1)c1nccnc1Cl [Compound 9, 3-Chloro-N-(3,4-dichlorobenzyl)pyrazine-2-carboxamide]",0.309,250,100,–,–,62.5,31.2,250,–,–
"COc1ccc(CNC(=O)c2nccnc2Cl)c(OC)c1 [Compound 4, 3-Chloro-N-(2,4-dimethoxybenzyl)pyrazine-2-carboxamide]",−0.095,> 500,> 100,–,–,125,> 500,> 500,–,–
"O=C(NCc1ccccc1Cl)c1nccnc1NCc1ccccc1Cl [Compound 5a, N-(2-Chlorobenzyl)-3-((2-chlorobenzyl)amino)pyrazine-2-carboxamide]",1.542,> 500,> 100,–,–,–,–,–,–,–
"O=C(NCc1cccc(Cl)c1)c1nccnc1NCc1cccc(Cl)c1 [Compound 6a, N-(3-Chlorobenzyl)-3-((3-chlorobenzyl)amino)pyrazine-2-carboxamide]",1.515,> 500,> 100,–,–,–,–,–,–,–
"O=C(NCc1ccc(F)cc1)c1nccnc1NCc1ccc(F)cc1 [Compound 11a, N-(4-Fluorobenzyl)-3-((4-fluorobenzyl)amino)pyrazine-2-carboxamide]",1.058,> 500,> 100,–,–,–,–,–,–,–
"O=C(NCc1ccccc1F)c1nccnc1Cl [Compound 10, 3-Chloro-N-(2-fluorobenzyl)pyrazine-2-carboxamide]",−0.154,125,> 100,–,–,–,–,–,–,–
"O=C(NCc1ccc(Cl)cc1)c1nccnc1Cl [Compound 7, 3-Chloro-N-(4-chlorobenzyl)pyrazine-2-carboxamide]",0.082,500,> 100,–,–,–,–,–,–,–
"O=C(NCc1ccc(Cl)cc1Cl)c1nccnc1Cl [Compound 8, 3-Chloro-N-(2,4-dichlorobenzyl)pyrazine-2-carboxamide]",0.375,125,> 100,–,–,125,125,250,–,–
"O=C(NCc1cccc(C(F)(F)F)c1)c1nccnc1Cl [Compound 12, 3-Chloro-N-(3-(trifluoromethyl)benzyl)pyrazine-2-carboxamide]",0.110,125,> 100,–,–,–,–,–,–,–
"COc1ccc(CNC(=O)c2nccnc2Cl)cc1 [Compound 3, 3-Chloro-N-(4-methoxybenzyl)pyrazine-2-carboxamide]",−0.202,125,25,–,90,31.2,250,125,–,–
neomycin [reference compound],–,–,–,–,–,–,–,–,7.81,0.98
"O=C(NCc1ccccc1F)c1nccnc1NCc1ccccc1F [Compound 10a, N-(2-Fluorobenzyl)-3-((2-fluorobenzyl)amino)pyrazine-2-carboxamide]",1.108,> 500,> 100,–,–,–,–,–,–,–
"Cc1ccc(CNC(=O)c2nccnc2Cl)cc1 [Compound 2, 3-Chloro-N-(4-methylbenzyl)pyrazine-2-carboxamide]",0.033,> 500,> 100,–,–,125,500,> 500,–,–
"Cc1ccccc1CNC(=O)c1nccnc1Cl [Compound 1, 3-Chloro-N-(2-methylbenzyl)pyrazine-2-carboxamide]",0.009,250,> 100,–,–,–,–,–,–,–
"O=C(O)c1cn(C2CC2)c2cc(N3CCNCC3)c(F)cc2c1=O [CPX, ciprofloxacin, reference compound]",–,0.098 to 0.195,–,–,–,–,–,–,–,–
